Results on 7 molecules are retold here after US20090023753A1, “1,3-Thiazole-5-Carboxamides Useful as Cancer Chemotherapeutic Agents” (Bayer HealthCare AG, priority 2005, published 2009).

Test [1] has as its system P-AKT/PKB in H209 small cell lung carcinoma cells. In words: P-AKT/PKB Cytoblot Assay with H209 cells (SCF-stimulated). The conditions noted are these: Homo sapiens, NCI-H209, 1 hour compound incubation, SCF 25 ng/mL for 5 minutes, p-(S473) AKT. Format: cell-based. The source says:
The utility of the compounds of the present invention can be illustrated, for example, by their activity in the P-AKT/PKB Cytoblot Assay described below. The involvement of the P-AKT/PKB[PI3K/AKt] pathway as a target for cancer chemotherapy has been recognized in the art. For example, see F. Chang et al, Involvement of PI3K/Akt pathway in cell cycle progression, apoptosis, and neoplastic transformation: a target for cancer chemotherapy, Leukemia, 2003, 17: p. 590-603; K. A. West et al, Activation of the PI3K/Akt pathway and chemotherapeutic resistance, Drug Resistance Updates, 2002, 5: p. 234-248; and P. Sen et al, Involvement of the Akt/PKB signaling pathway with disease processes, Molecular and Cellular Biochemistry, 2003, 253: p. 241-246.
P-AKT/PKB Cytoblot Assay Protocol with H209 Cells
H209 small cell lung carcinoma cells in log phase were plated at 50,000 cells/well in 96-well poly-lysine coated, clear bottom/black-sided plates (Becton-Dickinson, USA Cat # 354640) in 100 Ill RPMI medium containing 0.1% (w/v) BSA, and incubated overnight at 37° C. in 5% CO2 incubator. The following day, compounds (10 mM stock solutions in DMSO) were added to the plates to generate final concentrations of 0.0, 0.01, 0.03, 0.1, 0.3, 1.0, 3.0 and 10 μM for IC50 determinations and incubated for 1 hour at 37° C. Cells were then left untreated or stimulated with Stem Cell Factor (SCF: Biosource Cat # PHC2116) at a final concentration of 25 ng/mL for 5 minutes at 37° C. in 5% CO2 incubator. The media was then removed using a vacuum manifold and the cells were washed once with Tris Buffered Saline (TBS). Cells were then fixed by adding 200 μl of cold 3.7% (v/v) formaldehyde in TBS to each well for 15 minutes at 4° C. After removal of the formaldehyde, the cells were treated with the addition of 50 μl of methanol (at −20° C.) to each well for 5 minutes. After removal of the methanol, 200 μl of 1% (w/v) BSA in TBS was added to each well to block non-specific antibody binding sites and the plate was incubated at room temperature for 30 minutes.
After removal of the blocking buffer, 50 μl of p-(S473) AKT rabbit polyclonal antibody (Cell Signaling, USA Cat # 9277S) was added at a dilution of 1:250 in 0.1% (w/v) BSA in TBS, and the plate was incubated at room temperature for 1 hour. Plates were then washed 3 times with cold TBS containing 0.05% (v/v) Tween 20 (TBS-T) and 100 μl of Horseradish peroxidase (HRP)-conjugated goat-anti-rabbit antibody (Amersham, USA Cat # NA934V) at a dilution of 1:250 in TBS-T was added and the plate was incubated at room temperature for 1 h. After washing with ice-cold TBS-T four times, 100 μl of Enhanced Chemiluminescence (ECL) reagent (Amersham, USA Cat# RPN2209) was added to each well and mixed on a mini-orbital shaker for 1 min. The plate was then read on a Perkin Elmer Victor 5 Multilabel Counter (#1420-0421).

The subject of test [2] is phospho-ERK in MDA-MB-231 cells. Nature of the test: Phospho-ERK Cytoblot Assay with MDA-MB 231 cells. Format: cell-based. The conditions noted are these: Homo sapiens, 1 hour compound incubation, phospho-p44/42 MAP kinase (Thr202/Tyr204). The text has this: The utility of the compounds of the present invention can also be illustrated, for example, by their activity in the phosph-ERK Assay described below. Growth-factor induction of the RAS/MEK/ERK signaling pathway leads to the induction of phosphorylation of a number of proteins including phospho-ERK (See C. J. Marshall, MAP kinase kinase kinase, MAP kinase kinase and MAP kinase, Current Opinions in Genetic Development, 1994, 4: p. 82-89). The importance of this pathway in cancer biology has been recognized in the art. Activation of the RAS signaling pathway is an important mechanism by which cancer develops (R. Herrera, et al, Unraveling the complexities of the Raf/MAP kinase pathway for pharmacological intervention, Trends Mol. Med., 2002, 8: p. S27-31). Mutational activation of RAS or downstream effectors as well as growth factor induction of this pathway leads to increased tumor cell proliferation and survival (A. A. Adjei, Blocking oncogenic RAS signaling for cancer therapy, J. Natl. Cancer Inst., 2001, 93(14): p. 1062-1074; J Schlessinger, Cell signaling by receptor tyrosine kinases, Cell, 2000, 103: p. 211-225). Phospho-ERK Cytoblot Assay Protocol with MDA-MB 231 Cells MDA-MB-231 cells in log phase were plated at 25,000 cells/well in 96-well opaque plates (Falcon, USA Cat # 353296) in 100 μL RPMI medium containing 10% (w/v) FBS, and incubated overnight at 37° C. in 5% CO2 incubator. The following day, the growth medium was removed from the plate by aspiration and replaced with RPMI medium containing 0.1% BSA and example compounds diluted to generate final concentrations of 0.0, 0.001, 0.003, 0.01, 0.03, 0.1, 0.3, 1 and 3 μM. Cells were incubated with compound for 1 hour at 37° C. in a 5% CO2 incubator. The media was then removed from the plate by aspiration and the cells were washed once with 180 μL/well cold Tris Buffered Saline (TBS). After removal of the wash buffer, the cells were fixed by adding 180 μL of cold 3.7% (v/v) formaldehyde in TBS to each well for 1 hour at 4° C. After removal of the formaldehyde, the cells were treated with the addition of 60 μL of −20° C. methanol to each well for 5 minutes at 4° C. The methanol was removed and the cells were washed with 180 μL/well of 5% (w/v) BSA in TBS. To block non-specific antibody binding sites, each well was treated with 180 μL/well 5% BSA (w/v) in TBS for thirty minutes at room temperature. After removal of the blocking buffer, 50 μL of an anti-phospho-p44/42 MAP kinase (Thr202/Tyr204) rabbit polyclonal antibody (Cell Signaling, USA Cat # 9101) was added to each well at a dilution of 1:1000 in 5% (w/v) BSA in TBS, and the plate was incubated at 4° C. overnight. Plates were then washed three times with 300 μL/well TBS at room temperature. The plates were then incubated with 50 μL of Horseradish peroxidase (HRP)-conjugated goat-anti-rabbit antibody (Amersham, USA Cat. # NA934V) at a dilution of 1:1000 in 5% BSA-TBS at room temperature for 1 hr. After washing the plate three times with 300 μL/well TBS, 60 μL of Enhanced Chemiluminescence (ECL) reagent (Amersham, USA Cat# RPN2209) was added to each well and incubated at room temperature for five minutes. The plate was then read on a Perkin Elmer Victor 5 Multilabel Counter (#1420-0421). […] The utility of the compounds of the present invention can also be illustrated, for example, by their activity in the flk-1 (murine VEGFR2) Assay described below. The VEGF-VEGFR2 signaling pathway has been extensively characterized as an important regulator of angiogenesis and tumor angiogeneisis (See G. Yancopoulos et al, Vascular-specific growth factors and blood vessel formation, Nature, 2000, 407: p. 242-248; D. Shweiki et al, Induction of vascular endothelial growth factor expression by hypoxia and by glucose deficiency in multi cell spheroids: Implications for tumor angiogenesis, Proc. Natl. Acad. Sci, 1995, 92: p. 768-772). Inhibition of tumor cell growth by blocking this pathway has been well documented in the art. […]

The target in test [3] is T1, Flk-1 (murine VEGFR-2) kinase domain (Mus musculus, UniProt P35918).
T1 construct: 7 nM Flk-1 (kinase domain)
T1 sequence (P35918 832-1160 limits assumed): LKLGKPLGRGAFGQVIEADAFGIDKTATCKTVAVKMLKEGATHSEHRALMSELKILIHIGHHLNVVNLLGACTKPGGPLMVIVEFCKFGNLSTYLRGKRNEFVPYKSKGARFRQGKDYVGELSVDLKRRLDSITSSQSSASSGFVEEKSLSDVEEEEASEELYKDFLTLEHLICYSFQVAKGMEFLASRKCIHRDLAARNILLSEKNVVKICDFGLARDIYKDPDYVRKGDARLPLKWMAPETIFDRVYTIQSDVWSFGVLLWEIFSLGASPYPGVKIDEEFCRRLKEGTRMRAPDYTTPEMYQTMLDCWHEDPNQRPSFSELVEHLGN
Nature of the test: Flk-1 (murine VEGFR-2) Biochemical Assay (TR-FRET). The conditions noted are these: 10 μM ATP, 7 nM Flk-1 (kinase domain).

A value given as a limit tells only on which side of the number the result lay.

Regarding `CC(=O)OCC(=O)Nc1cc(CNc2ncsc2C(=O)Nc2ccc3c(c2)OC(F)(F)C(F)(F)O3)ccn1` [Example 14, 2-oxo-2-[(4-{[(5-{[(2,2,3,3-tetrafluoro-2,3-dihydro-1,4-benzodioxin-6-yl)amino]carbonyl}-1,3-thiazol-4-yl)amino]methyl}pyridin-2-yl)amino]ethyl acetate], the IC50 in test [1] is below 500 nM; in test [2], below 3000 nM; in test [3] it was below 500 nM.
`COCC(=O)Nc1cc(CNc2ncsc2C(=O)Nc2ccc3c(c2)OC(F)(F)O3)ccn1` [Example 7, N-(2,2-difluoro-1,3-benzodioxol-5-yl)-4-[([2-[(methoxyacetyl)amino]pyridin-4-yl]methyl)amino]-1,3-thiazole-5-carboxamide]: the IC50 was below 500 nM in test [1], below 3000 nM in test [2] and below 500 nM in test [3].
Take `COCC(=O)Nc1cc(CNc2ncsc2C(=O)Nc2ccc3c(c2)OC(F)(F)C(F)(F)O3)ccn1` [Example 8, 4-[({2-[(methoxyacetyl)amino]pyridin-4-yl}methyl)amino]-N-(2,2,3,3-tetrafluoro-2,3-dihydro-1,4-benzodioxin-6-yl)-1,3-thiazole-5-carboxamide]: the IC50 was below 500 nM in test [1], below 3000 nM in test [2] and below 500 nM in test [3].
With `CCNC(=O)Nc1cc(CNc2ncsc2C(=O)Nc2ccc3c(c2)OC(F)(F)O3)ccn1` [Example 17, N-(2,2-difluoro-1,3-benzodioxol-5-yl)-4-{[(2-{[(ethylamino)carbonyl]amino}pyridin-4-yl)methyl]amino}-1,3-thiazole-5-carboxamide], the IC50 was below 500 nM in test [1], below 3000 nM in test [2] and below 500 nM in test [3].
For the molecule `CCNC(=O)Nc1cc(CNc2ncsc2C(=O)Nc2ccc3c(c2)OC(F)(F)C(F)(F)O3)ccn1` [Example 21, 4-{[(2-{[(ethylamino)carbonyl]amino}pyridin-4-yl)methyl]amino}-N-(2,2,3,3-tetrafluoro-2,3-dihydro-1,4-benzodioxin-6-yl)-1,3-thiazole-5-carboxamide], the IC50 in test [1] was below 500 nM; in test [2], below 3000 nM; in test [3] it was below 500 nM.
As to `CC(=O)Nc1cc(CNc2ncsc2C(=O)Nc2ccc3c(c2)OC(F)(F)C(F)(F)O3)ccn1` [Example 11, 4-({[2-(acetylamino)pyridin-4-yl]methyl}amino)-N-(2,2,3,3-tetrafluoro-2,3-dihydro-1,4-benzodioxin-6-yl)-1,3-thiazole-5-carboxamide], the IC50 in test [1] was below 500 nM; in test [2], below 3000 nM; in test [3], below 500 nM.
Regarding `COCCOCC(=O)Nc1cc(CNc2ncsc2C(=O)Nc2ccc3c(c2)OC(F)(F)C(F)(F)O3)ccn1` [Example 9, 4-{[(2-{[(2-methoxyethoxy)acetyl]amino}pyridin-4-yl)methyl]amino}-N-(2,2,3,3-tetrafluoro-2,3-dihydro-1,4-benzodioxin-6-yl)-1,3-thiazole-5-carboxamide], the values for the IC50 in test [1], in test [2] and in test [3] were below 500 nM, below 3000 nM and below 500 nM, respectively.

One may read the IC50 as the concentration needed to halve the response being measured. A low value points to greater potency.
